Assay results: patent publication US20030220517A1, “Method for producing ketocarboxylic acid derivatives” (priority 2000, published 2003)

Experiments:
[1] = log P determination by HPLC on reversed-phase column (EEC Directive 79/831 Annex V.A8); format: physicochemical; conditions: reversed-phase C18 HPLC column, reversed-phase column (C 18), 43° C., acidic range pH 2.3, 0.1% aqueous phosphoric acid/acetonitrile gradient
Procedure: The log P values given in the use examples above are determined in accordance with EEC Directive 79/831 Annex V.A8 by HPLC (High Performance Liquid Chromatography) on a reversed-phase column (C 18). Temperature: 43° C. The determination is carried out in the acidic range at pH 2.3 using the mobile phases 0.1% aqueous phosphoric acid and acetonitrile; linear gradient from 10% acetonitrile to 90% acetonitrile. Calibration is carried out using unbranched alkan-2-ones (with 3 to 16 carbon atoms) with known logP values (determination of the logP values by the retention times using linear interpolation between two successive alkanones).

SMILES | melting point | chromatographic logP [1]
O=C(O)CCC(=O)c1ccc(-c2ccc3c(c2)OC(F)(F)C(F)(F)O3)cc1 [Example 5, 4-oxo-4-(3′,4′-tetrafluoroethylenedioxo-biphenyl-4-yl)butyric acid] | 165 to 168 °C | 
O=C1CCC(c2ccc(-c3ccc(OC(F)(F)F)cc3)cc2)N1 (centres unmarked) [Example X-1, 5-[4′-(trifluoromethoxy)-1,1′-biphenyl-4-yl]-2-pyrrolidinone] |  | 2.95
CC(C)(C)OC(=O)N1C(=O)CCC1c1ccc(-c2ccc(OC(F)(F)F)cc2)cc1 (centres unmarked) [XI-1, tert-butyl 2-oxo-5-[4′-(trifluoromethoxy)-1,1′-biphenyl-4-yl]-1-pyrrolidinecarboxylate] |  | 4.32
CC(C)(C)OC(=O)NC(CCC(=O)c1c(F)cccc1F)c1ccc(-c2ccc(OC(F)(F)F)cc2)cc1 (centres unmarked) [XIII-1, tert-butyl 4-(2,6-difluorophenyl)-4-oxo-1-[4′-(trifluoromethoxy)-1,1′-biphenyl-4-yl]butylcarbamate] |  | 5.18
C=C(c1ccccc1)N1C(=O)CCC1c1ccc(-c2ccc(OC(F)(F)F)cc2)cc1 (centres unmarked) [IX-1, 1-(1-phenylvinyl)-5-[4′-(trifluoromethoxy)-1,1′-biphenyl-4-yl]-2-pyrrolidinone] |  | 4.35
Fc1cccc(F)c1C1=N[C@@H](c2ccc(-c3ccc(OC(F)(F)F)cc3)cc2)CC1 [Example V-1, (2R)-5-(2,6-difluorophenyl)-2-[4′-(trifluoromethoxy)-1,1′-biphenyl-4-yl]-3,4-dihydro-2H-pyrrole] |  | 4.13
O=C1CCC(c2ccc(-c3ccc(OC(F)(F)F)cc3)cc2)N1C(CCl)c1ccccc1 (centres unmarked) [VIII-1, 1-[2-chloro-1-phenylethyl]-5-[4′-(trifluoromethoxy)-1,1′-biphenyl-4-yl]-2-pyrrolidinone] |  | 4.78
O=C1CCC(c2ccc(-c3ccc(OC(F)(F)F)cc3)cc2)N1C(CO)c1ccccc1 (centres unmarked) [VII-1, 1-[2-hydroxy-1-phenylethyl]-5-[4′-(trifluoromethoxy)-1,1′-biphenyl-4-yl]-2-pyrrolidinone] |  | 3.8
